Experimental findings from patent US20240174693A1, “SOMATOSTATIN RECEPTOR SUBTYPE 4 (SSTR4) AGONISTS AND THEIR APPLICATIONS” (Humanwell Pharmaceutical US, priority 2022, published 2024) are described below.

Molecules are shown by their SMILES. Where only a bound is given, the exact number is not on record here.

For one data set, the target named is T1, CYP2D6 (Homo sapiens, UniProt P10635).
T1 construct: from tissue; host or cells: liver microsomes (HLM)
The experiment in a line: CYP inhibition in HLM, CYP2D6. Format: in vitro ADME. The following applies: read-out: CYP inhibition (IC50 um) 2D6. As to the method:
0.1 M potassium phosphate buffer (K-buffer), pH 7.4 was preheated. K-buffer was prepared by mixing 9.5 mL Stock A into 40.5 mL Stock B. The total volume was brought to 500 mL with Milli-Q water. The buffer was titrated with KOH or H3PO4 to pH 7.4. Stock A (1 M monobasic potassium phosphate) was prepared by adding 136.5 g of monobasic potassium phosphate into 1 L of Milli-Q water. Stock B (1 M dibasic potassium phosphate) was prepared by adding 174.2 g of dibasic potassium phosphate in 1 L of Milli-Q water.
Serial dilution for test compound and reference inhibitors (400×) was prepared in a 96-well plate. 8 μL of 10 mM test compounds was transferred to 12 μL of ACN. Inhibitor spiking solution was prepared for CYP1A2, CYP2C9 and CYP2D6 in cocktail by adding 12 μL of 1 mM α-Naphthoflavon, 10 μL of 40 mM Sulfaphenazole, 10 μL of 10 mM Quinidine, and 8 μL of DMSO. Individual inhibitor spiking solution for CYP3A4 and CYP2C19 was prepared by adding 8 μL of DMSO stock to 12 μL of ACN. 1:3 serial dilutions were performed in DMSO:ACN mixture (v/v: 40:60).
NADPH cofactor was prepared by dissolving 66.7 mg NADPH in 10 mL 0.1 M K-buffer, pH7.4. 4×substrate (2 mL for each isoform) was prepared. HLM was added were required on ice. 0.2 mg/mL HLM solution was prepared using 10 μL of 20 mg/mL to 990 μL of 0.1 M K-buffer on ice. 400 μL of 0.2 mg/mL HLM were added to the assay wells and then 2 μL of 400×test compound set were added into the designated wells on ice. 200 μL of 0.2 mg/mL HLM was added to the assay wells and followed by 1 μL of serially diluted reference inhibtor solution into the designated wells on ice. The following solutions were added in duplicated in a 96-well plate on ice: 30 μL of 2×test compound and reference compound in 0.2 mg/mL HLM solution and 15 μL of 4×substrate solution. The 96-well assay plate and NADPH solution were pre-incubated at 37° C. for 5 minutes. 15 μL of pre-warmed 8 mM NADPH solution was added to into the assay plates to initiate the reaction. The assay plate was incubated at 37° C. 5 mins, 10 mins, and 45 mins. […]

Data set [1] is described as follows: Log D octanol / potassium phosphate buffer. It is filed as physicochemical. The following applies: octanol / potassium phosphate buffer (pH 7.4), 25° C. The protocol:
10 μL of 10 mM stock solutions were placed into a 96-well plate. 300 μL of octanol into the plate was added to the plate. The plate was sealed and agitated on a plate shaker for 5 minutes. The plate was centrifuged at 2000 rpm for 5 minutes. The seal was removed and 600 μL of potassium phosphate buffer (pH 7.4) was added. The plate was sealed, and the two phases were mixed on the plate shaker vigorously for 1 hour at 25° C. The plate was centrifuged at 2000 rpm for 5 minutes after mixing and the seal was removed. 10 μL of water phase samples from the water phase plate was aspirated and mixed with 10 μL of water (1:2 dilution). 180 μL of 50% Ethanol was added into the water phase sample plate (1:10 dilution) to achieve 1:20 dilution. 50 μL of water phase sample was mixed with 100 μL of 50% Ethanol (containing IS) into the water phase sample plate to achieve 1:60 dilution. 10 μL from the octanol phase (the upper phase) was transfered into a new 96-well plate and 190 μL 50% Ethanol (1:20 dilution) was added. 10 μL of 1:20 diluted octanol samples were transferred into a new 96 deep-well plate and 390 μL 50% Ethanol (1:40 dilution) was added to achieve 1:800 dilution. 50 μL of 1:800 diluted octanol samples were transferred into a new 96-well plate again and 100 μL 50% ethanol with IS was added to achieve 1:2400 dilution. Samples were ready for LC/MS analysis.

The nature of data set [2]: Plasma protein binding by dialysis. Format: in vitro ADME. The settings on record: rat plasma; for Protein Binding Fu(%) / fraction unbound at 5 h, 1 μM: 1 μM, 5 hours dialysis at 37° C.; for fraction unbound at 5 h, 1 μM: read-out: Protein Binding Fraction unbound (fu) (converted). As to the method: The following solutions were prepared: Solution A (0.5 mM) 10 μL of 10 mM stock solution was added into 190 μL of DMSO and Solution B (0.02 mM): 8 μL of Solution A was added into 192 μL of 0.05 M sodium phosphate buffer. The final DMSO concentration in Solution B is 4%.
A 96-well plate was preloaded with 380 μL aliquots of plasma in the wells designated for plasma and buffer, respectively. 20 μL of Solution B (0.02 mM of test and reference compounds) was spiked into the pre-loaded plasma in the 96-well plate. The final test concentration was 1 μM containing 0.2% DMSO.
Aliquots of 100 μL of blank dialysis buffer were applied to the receiver side of dialysis chambers. Next aliquots of 100 μL of the plasma spiked with test and reference compounds were applied to the donor side of the dialysis chambers. Blank buffer was added to the receiver first and the buffer and plasma chambers were clearly marked to avoid cross contamination.
Aliquots of 25 μL of plasma spiked with test and reference compounds were placed in 96-well sample preparation plates as t=0 min plasma samples. The aliquots were mixed with the same volume of blank buffer (50:50, v/v). The samples were quenched with 200 μL of acetonitrile containing internal standard (IS). The dialysis block was covered with a plastic lid and the entire apparatus was placed on a shaker (60 rpm) for 5 hours at 37° C.
25 μL aliquot from both the donor sides and receiver sides of the dialysis apparatus were placed into new sample preparation plates and mixed with the same valune of opposite matrixes (blank buffer to plasma and vice versa). The sample was quenched with 200 μL acetonitrile containing internal standard. All the samples from 0 hour to 5 hours were vortexed at 600 rpm for 10 minutes followed by centrifugation at 5594 g for 15 minutes (Thermo Multifuge×3R). 50 μL of the supernatant was transferred to a new 96-well plate and the sample was mized with 50 μL of Mili-Q water. The sample plate was covered and stored in a −20° C. freezer. The samples were subsequently analyzed by LC/MS/MS.

T1 sequence (P10635 whole entry): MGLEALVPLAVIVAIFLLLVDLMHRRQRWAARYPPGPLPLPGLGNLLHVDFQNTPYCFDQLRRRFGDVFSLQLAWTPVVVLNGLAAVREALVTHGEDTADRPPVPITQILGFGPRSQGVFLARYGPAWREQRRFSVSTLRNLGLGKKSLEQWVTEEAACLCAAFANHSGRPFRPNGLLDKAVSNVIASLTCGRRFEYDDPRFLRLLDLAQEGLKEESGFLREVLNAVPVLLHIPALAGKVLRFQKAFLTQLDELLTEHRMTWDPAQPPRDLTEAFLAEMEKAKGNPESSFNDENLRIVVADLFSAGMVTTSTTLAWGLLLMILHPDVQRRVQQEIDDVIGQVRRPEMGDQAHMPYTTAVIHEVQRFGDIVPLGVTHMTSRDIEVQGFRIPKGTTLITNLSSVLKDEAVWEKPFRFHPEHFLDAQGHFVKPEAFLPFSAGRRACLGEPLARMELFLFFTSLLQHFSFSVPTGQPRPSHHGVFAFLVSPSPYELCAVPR

For orientation: IC50 means the concentration needed to halve the response being measured. Usually logD stands for lipophilicity at a set pH, counting ionised and neutral species. Higher therefore signals higher lipophilicity. The term fraction unbound denotes free concentration divided by total concentration. `CC(C)(NC(=O)[C@H]1[C@@H]2CNC[C@H]1C2)c1ncc2c(Cl)cccn12` [Compound 7, (1R,5S,6r)-N-(2-(8-chloroimidazo[1,5-a]pyridin-3-yl)propan-2-yl)-3-azabicyclo[3.1.1]heptane-6-carboxamide]: on CYP2D6, the IC50 is greater than 10 µM. The same compound registered a logD in data set [1] of -0.07. For the same compound, in data set [2], the “Protein Binding Category” value is “Moderate”; the recovery at 5 h, 1 µM came out at 96.6%; the “Protein Binding Fu(%)” value is listed as 37.8%; the free fraction (fraction unbound) at 5 h, 1 μM is 0.378.

As to `CC(C)(NC(=O)[C@H]1[C@@H]2CNC[C@H]1C2)c1ncc2c(Br)cccn12` [Compound 8, (1R,5S,6r)-N-(2-(8-bromoimidazo[1,5-a]pyridin-3-yl)propan-2-yl)-3-azabicyclo[3.1.1]heptane-6-carboxamide], the IC50 on CYP2D6 is greater than 10 µM. Besides, the logD in data set [1] was -0.15. Further, in data set [2], the “Protein Binding Category” value is “Moderate”; the recovery at 5 h, 1 µM was 103%; the “Protein Binding Fu(%)” value is 28.16%; the fraction unbound at 5 h, 1 μM was 0.282.

For `CC(C)(NC(=O)[C@H]1[C@@H]2CNC[C@H]1C2)c1nc(C2CC2)c2ccccn12` [Compound 9, (1R,5S,6r)-N-(2-(1-cyclopropylimidazo[1,5-a]pyridin-3-yl)propan-2-yl)-3-azabicyclo[3.1.1]heptane-6-carboxamide], the IC50 at CYP2D6 is greater than 10 µM. For the same compound, the logD in data set [1] is -0.11. Besides, in data set [2], the “Protein Binding Category” value is given as “Moderate”; the recovery at 5 h, 1 µM came out at 68.2%; the “Protein Binding Fu(%)” value amounted to 40.9%; the unbound share (fraction unbound) at 5 h, 1 μM was 0.409.
